{
  "source": "patent US12465582B2",
  "about": "“(S)-2-amino-6-((3-aminopropyl)amino)hexanoic acid (APL) for use in the treatment of non-alcoholic steatohepatitis (NASH), liver inflammation, hepatocellular ballooning, liver fibrosis and steatosis” (Temple University—Of The Commonwealth System Of Higher …, priority 2020, dated 2025)",
  "assay_type_in_all_cases": "in vivo",
  "key": {"Zucker fa/fa obese rats": {"test_system": "Zucker fa/fa obese rats", "assay": "Glucose tolerance test (GTT) in Zucker rat model of NASH", "details": "100 mg/kg APL p.o. b.i.d., 78 days, **p<0.01", "excerpt": "Zucker fa/fa obese rats and Zucker Fa/fa lean rats (7-week old male animals obtained from Charles Rivers Laboratories, Wilmington, MA, USA) were maintained in individual cages (1 rat per cage to encourage sedentary activity) and had free access to standard rodent chow (Cat #5053, obtained from Labdiet, Saint Louis, MO) and water (filtered and packed using a Hydrapak system) for 7 days until the start of the experiment. Zucker fa/fa obese rats were randomly assigned to two groups: 1) vehicle p.o.b.i.d. (oral administration, twice a day) for 78 days (n=7); and 2) 100 milligram per kilogram (mg/kg) body weight APL (p.o.b.i.d.) for 78 days (n=8). Zucker Fa/fa lean rats (n=4) were administered vehicle (p.o.b.i.d.) for 78 days. Phosphate-buffered saline (PBS), which is the solution used to dissolve APL, was used as vehicle solution. APL powder was dissolved under sterile conditions with PBS at a concentration of 100 mg/mL; volumes were adjusted for each animal accordingly to their body weight. […]\nAt the conclusion of the experimental time period (78 days for rats and 130 days for mice), the animals were subjected to a glucose tolerance test (GTT) as follows. […] Glucose levels were measured at 0, 15, 30, 45, 60, and 120 minutes after glucose administration. Glucose was measured using the AlphaTRAK 2 glucometer from Abbott"}, "[1]": {"test_system": "C57BL/6J mice fed high fat/high fructose diet (HFD)", "assay": "Glucose tolerance test (GTT) in diet-induced obesity (HFD) mouse model of NASH", "details": "APL 200 mg/kg/day p.o. in two doses, 130 days", "excerpt": "C57BL/6J mice 5 week old male mice obtained from Jackson Laboratories, Bar Harbor, ME, USA) were maintained in cages (5 mice per cage) and had free access to standard rodent chow (Cat #5053, obtained from Labdiet, Saint Louis, MO) and water (filtered and packed using a Hydrapak system) for 5 days until the start of the experiment. The animals were then randomly assigned to five groups (n=5 for each group) receiving different diets and treatments as shown in Table A for 130 days. Each treatment was administered p.o.b.i.d. The APL dosage administered to each animal was 200 milligrams per kilogram of body weight divided in two dosages per day, via oral gavage and the pioglitazone dosage received each animal was 20 milligrams per kilogram of body weight divided in two dosages per day, via oral gavage. “HFD” is high fat/high fructose diet, which contains 58% fat, 25% carbohydrate and 17% protein. HFD was obtained from Research Diets, Inc. “Chow” refers to standard rodent chow (Cat #5053, obtained from Labdiet, Saint Louis, MO). Animals were fed ad libitum, except during the GTT experiments.\nAt the conclusion of the experimental time period (78 days for rats and 130 days for mice), the animals were subjected to a glucose tolerance test (GTT) as follows. Animals were fasted for 5 hours, weights, and their tails were clipped to measure fasting blood glucose levels. Immediately after, glucose (2 mg/g body weight) was administered orally. Glucose levels were measured at 0, 15, 30, 45, 60, and 120 minutes after glucose administration. Glucose was measured using the AlphaTRAK 2 glucometer from Abbott"}, "[2]": {"test_system": "C57BL/6J mice fed high fat/high fructose diet (HFD)", "assay": "Hepatic steatosis: liver histology (H&E, BODIPY/DAPI) in HFD mouse NASH model", "excerpt": "As in Example 1, C57BL/6 mice (same sample of mice as in Example 1) were maintained in cages (5 mice per cage) and had free access to standard rodent chow (Cat #5053, obtained from Labdiet, Saint Louis, MO) and water (filtered and packed using a Hydrapak system) for 5 days. […] The APL dose was 200 milligram per kilogram (mg/kg) per day, administered as two 100 milligram per kilogram (mg/kg) body weight APL (p.o.b.i.d.). Animals were fed ad libitum. The animals were humanely euthanized, and the livers were removed for histological analysis. Liver samples in formalin were allowed to fix for 48 hours, and processed into FFPE blocks after fixations. Slides were stained with hematoxylin and eosin (H&E) and to immunostaining with BODIPY and DAPI to quantitate fat deposition and nuclei number using confocal microscopy. See, e.g., Rico et al, 2007, J Cell Physiol, 211(2):504-12; and Daemen et al, 2016, Mol Metab, 5(3) 153-63. The data are depicted in FIGS. 3, 4, and 5\nFIG. 5D is the plot of fat deposition assessed using confocal microscopy. Measurements were made in 20×-magnification fields. More than 21 fields from three different animals from each group were analyzed: Chow-vehicle (#fields=26), HFD-Vehicle (#fields=25) and HFD-APL (#fields=23). Indirect measurement using imageJ (Schneider et al., 2012, Nature Methods 9(7): 671-675) was used to calculate fat deposition. Fat deposition was increased 3-fold in HFD/vehicle-treated mice compared with CHOW control mice and with HFD/APL-treated mice (***p<0.001)."}, "[3]": {"test_system": "C57BL/6J mice fed AMLN diet changed to HFD", "assay": "Liver function serum biomarkers in AMLN diet mouse model of NASH", "details": "16 weeks (week 50-66)", "method": "(§1) C57BL/6 mice were maintained in cages and had free access to standard rodent chow (Cat #5053, obtained from Labdiet, Saint Louis, MO) and water. C57BL/6J mice were fed either CHOW (negative control) or amylin liver NASH (AMLN) diet (58% high fat, 25% carbohydrate, 2% cholesterol) for twenty (20) weeks. Beginning at twenty (20) weeks, animals fed AMLN diet were changed to HFD. At fifty (50) weeks, animals were treated twice daily (b.i.d.) with oral administration (p.o.) of either vehicle (positive control) or APL (treated)."}, "[4]": {"test_system": "C57BL/6J mice fed AMLN diet changed to HFD", "assay": "NAS and liver fibrosis in AMLN diet mouse model of NASH", "details": "APL p.o. b.i.d., 16 weeks", "method": "FIG. 12, comprising FIGS. 12A and 12B, depicts data regarding NAS and fibrosis in an AMLN diet mouse model of NASH. C57BL/6J mice were fed either CHOW or a modified AMLN diet that was changed to HFD after twenty (20) weeks. At seek fifty (50) mice were treated with vehicle or APL (p.o.b.i.d.). The APL dosage 25, 50, or 100 mg/kg, oral administration (p.o.) in two dosages per day (b.i.d.) (total dosage of 50, 100, or 200 mg/kg/day). After sixteen (16) weeks of treatment with vehicle or APL biopsies were collected and stained with hematoxylin & eosin (H&E) and evaluated for steatosis, inflammation, and hepatocyte ballooning. FIG. 12A depicts the reduction in NAS the treated group as compared to the positive control. […] FIG. 12B depicts the reduction in liver fibrosis in the treated group as compared to the positive control.\nas §1"}, "[5]": {"details": "HFD mice, APL 200 mg/kg/day p.o. b.i.d., 20 weeks"}},
  "data": [
    {"smiles": "NCCCNCCCC[C@H](N)C(=O)O", "note": "[APL, (S)-2-amino-6-((3-aminopropyl)amino)hexanoic acid]", "values": [
      {"measurement": "AUC of GTT, obese rats treated with APL vs obese rats treated with vehicle", "setting": "Zucker fa/fa obese rats", "result": "significantly lower"},
      {"measurement": "AUC of GTT of HFD/vehicle mice compared to mice fed HFD and treated with APL", "setting": "[1]; **p<0.01", "result": "significantly higher"},
      {"measurement": "blood glucose levels in GTT, treated vs negative control (chow vehicle)", "setting": "[1]; HFD mice, any time point 0-120 min", "result": "no significant statistical difference"},
      {"measurement": "blood glucose levels in GTT, treated vs positive control (HFD vehicle)", "setting": "[1]; HFD mice, at 15-min (p<0.0001), 60-min (p<0.05), 120-min (p<0.001)", "result": "significant statistical difference"},
      {"measurement": "number of nuclei (DAPI) of HFD/vehicle mice compared to mice fed HFD and treated with APL", "setting": "[2]; APL 200 mg/kg/day p.o. b.i.d., ***p<0.001", "result": "statistically significant fewer"},
      {"measurement": "fat deposition, increase in HFD/vehicle-treated mice compared with HFD/APL-treated mice", "setting": "[2]; APL 200 mg/kg/day p.o. b.i.d., confocal microscopy, ImageJ, ***p<0.001", "result": 3, "unit": "fold"},
      {"measurement": "hepatocyte ballooning induced by HFD in H&E liver sections (FIG. 3)", "setting": "[2]; HFD mice treated with APL for 131 days, 20x magnification", "result": "minimal or no ballooning"},
      {"measurement": "anatomical structure of the liver, H&E (FIG. 5A)", "setting": "[2]; HFD mice, APL 200 mg/kg/day p.o. b.i.d.", "result": "retained the normal anatomy of the liver"},
      {"measurement": "hepatocyte fat accumulation, inflammatory infiltration and hepatocyte ballooning in H&E liver sections", "setting": "[2]; HFD mice, APL 200 mg/kg/day p.o. b.i.d., 18 weeks, vs HFD vehicle", "result": "less severe"},
      {"measurement": "fat deposition, treated group vs negative control (chow vehicle)", "setting": "[2]; [5]", "result": "No significant statistical difference"},
      {"measurement": "number of nuclei (hepatocytes), treated group vs negative control (chow vehicle)", "setting": "[2]; [5]", "result": "no statistical differences"},
      {"measurement": "serum ALP vs positive control", "setting": "[3]; APL 50 mg/kg/day p.o. b.i.d.", "result": "significant reduction"},
      {"measurement": "serum ALT vs positive control", "setting": "[3]; APL 50 mg/kg/day p.o. b.i.d.", "result": "significant reduction"},
      {"measurement": "serum AST vs positive control", "setting": "[3]; APL 50 mg/kg/day p.o. b.i.d.", "result": "significant reduction"},
      {"measurement": "serum nonesterified fatty acids (NEFA) vs positive control", "setting": "[3]; APL 50 mg/kg/day p.o. b.i.d.", "result": "significant reduction"},
      {"measurement": "serum triglycerides vs positive control", "setting": "[3]; APL 50 mg/kg/day p.o. b.i.d.", "result": "significant reduction"},
      {"measurement": "serum cholesterol vs positive control", "setting": "[3]; APL 200 mg/kg/day p.o. b.i.d.", "result": "significant reduction"},
      {"measurement": "liver fibrosis vs positive control (FIG. 12B)", "setting": "[4]; ****p<0.0001", "result": "significant reduction"},
      {"measurement": "NAS vs positive control (FIG. 12A)", "setting": "[4]; ***p<0.001", "result": "significant reduction"}
    ]}
  ]
}
